Tested on: up to 32 different microorganisms
Assay: in vitro antibacterial activity (MIC), agar dilution on Brain Heart Infusion (BHI) agar with Steers replicator
Type: cell-based
Details: unit assumed
Method: Representative compounds of the present invention were assayed in vitro for antibacterial activity as follows: Twelve petri dishes containing successive aqueous dilutions of the test compound mixed with 10 mL of sterilized Brain Heart Infusion (BHI) agar (Difco 0148-01-5) were prepared. Each plate was inoculated with 1:100 (or 1:10 for slow-growing strains, such as Micrococcus and Streptococcus) dilutions of up to 32 different microorganisms, using a Steers replicator block. The inoculated plates were incubated at 35°-37° C. for 20 to 24 hours. In addition, a control plate, using BHI agar containing no test compound, was prepared and incubated at the beginning and end of each test.
An additional plate containing a compound having known susceptibility patterns for the organisms being tested and belonging to the same antibiotic class as the test compound was also prepared and incubated as a further control, as well as to provide test-to-test comparability. Erythromycin A was used for this purpose.
After incubation, each plate was visually inspected. The minimum inhibitory concentration (MIC) was defined as the lowest concentration of drug yielding no growth, a slight haze, or sparsely isolated colonies on the inoculum spot as compared to the growth control.

[1] = Candida albicans CCH 442 (code TT)
[2] = Enterococcus faecism ATCC 8043 (code II)
[3] = Escherichia coli DC-2 (code SS)
[4] = Escherichia coli JUHL (code QQ)
[5] = Haemophilis influenzae DILL AMP R (code WW)
[6] = Micrococcus luteus ATCC 4698 (code PP)
[7] = Micrococcus luteus ATCC 9341 (code OO)
[8] = Mycobacterium smegmatis ATCC 114 (code UU)
[9] = Nocardia Asteroides ATCC9970 (code VV)
[10] = Staphylococcus aureus 1775 (code GG)
[11] = Staphylococcus aureus A5177 (code BB)
[12] = Staphylococcus aureus A-5278 (code CC)
[13] = Staphylococcus aureus ATCC 6538P (code AA)
[14] = Staphylococcus aureus CMX 553 (code FF)
[15] = Staphylococcus aureus CMX 642A (code DD)
[16] = Staphylococcus aureus NCTC10649M (code EE)
[17] = Staphylococcus epidermidis 3519 (code HH)
[18] = Streptococcus Pneumonia 5649 (code ZZA)
[19] = Streptococcus Pneumonia 5979 (code ZZ)
[20] = Streptococcus Pneumonia ATCC6303 (code XX)
[21] = Streptococcus Pneumonia GYR 1171 (code YY)
[22] = Streptococcus agalactiae CMX 508 (code KK)
[23] = Streptococcus bovis A-5169 (code JJ)
[24] = Streptococcus pyogenes 930 (code MM)
[25] = Streptococcus pyogenes EES61 (code LL)
[26] = Streptococcus pyogenes PIU 2548 (code NN)

Which results are given for C=CCO[C@@]1(C)C[C@@H](C)C(=O)[C@H](C)[C@H]2NC(=O)O[C@]2(C)[C@@H](CC)OC(=O)[C@H](C)C(=O)[C@H](C)[C@H]1O[C@@H]1O[C@H](C)C[C@H](N(C)C)[C@H]1O [Example 102, Formula (IX): L is CO, T is NH, R is —CH2CH═CH2]?
MIC [1]: > 100 µg/mL; MIC [2]: 0.78 µg/mL; MIC [3]: > 100 µg/mL; MIC [4]: > 100 µg/mL; MIC (Escherichia coli SS (code RR)): 1.56 µg/mL; MIC [5]: 64 µg/mL; MIC [6]: 0.78 µg/mL; MIC [7]: 0.2 µg/mL; MIC [8]: 25 µg/mL; MIC [9]: 1.56 µg/mL; MIC [10]: > 100 µg/mL; MIC [11]: 1.56 µg/mL; MIC [12]: > 100 µg/mL; MIC [13]: 0.78 µg/mL; MIC [14]: 1.56 µg/mL; MIC [15]: 1.56 µg/mL; MIC [16]: 0.78 µg/mL; MIC [17]: 1.56 µg/mL; MIC [18]: 0.25 µg/mL; MIC [19]: > 64 µg/mL; MIC [20]: 0.5 µg/mL; MIC [21]: 0.25 µg/mL; MIC [22]: 0.2 µg/mL; MIC [23]: 0.2 µg/mL; MIC [24]: > 100 µg/mL; MIC [25]: 0.2 µg/mL; MIC [26]: 0.2 µg/mL

C=CCOC1(C)CC(C)C(=O)C(C)C2N(CC=C)C(=O)OC2(C)C(CC)OC(=O)C(C)C(=O)C(C)C1OC1OC(C)CC(N(C)C)C1O (stereo not drawn) [Example 183, Compound of Formula (IX): L is CO, T is N (CH2CH═CH2), R is —CH2CH═CH2] was tested. Which MIC [1] did it give?
Its MIC is over 100 µg/mL.

And the MIC [2]?
Its MIC is 3.1 µg/mL.

And the MIC [3]?
The MIC was over 100 µg/mL.

And the MIC [4]?
The MIC was over 100 µg/mL.

And the MIC (Escherichia coli SS (code RR))?
The MIC was 25 µg/mL.

And the MIC [5]?
The MIC was over 128 µg/mL.

What about the MIC [6] of the same compound?
The MIC was 25 µg/mL.

What about the MIC [7] of the same compound?
The MIC was 6.2 µg/mL.

And the MIC [8]?
The MIC was over 100 µg/mL.

What about the MIC [9] of the same compound?
Its MIC is 1.56 µg/mL.

And the MIC [10]?
The MIC was over 100 µg/mL.

What about the MIC [11] of the same compound?
The MIC was 25 µg/mL.

And the MIC [12]?
The MIC was over 100 µg/mL.

And the MIC [13]?
The MIC was 25 µg/mL.

What about the MIC [14] of the same compound?
The MIC was 25 µg/mL.

What about the MIC [15] of the same compound?
Its MIC is 25 µg/mL.

And the MIC [16]?
The MIC was 25 µg/mL.

And the MIC [17]?
Its MIC is 25 µg/mL.

What about the MIC [18] of the same compound?
The MIC was 2 µg/mL.

What about the MIC [19] of the same compound?
The MIC was over 128 µg/mL.

And the MIC [20]?
Its MIC is 2 µg/mL.

What about the MIC [21] of the same compound?
Its MIC is 2 µg/mL.

And the MIC [22]?
The MIC was 1.56 µg/mL.

And the MIC [23]?
Its MIC is 0.78 µg/mL.

And the MIC [24]?
The MIC was over 100 µg/mL.

What about the MIC [25] of the same compound?
Its MIC is 1.56 µg/mL.

And the MIC [26]?
Its MIC is 3.1 µg/mL.

CC[C@H]1OC(=O)[C@H](C)C(=O)[C@H](C)[C@@H](O[C@@H]2O[C@H](C)C[C@H](N(C)C)[C@H]2O)[C@@](C)(OCC2COC(C)(C)O2)C[C@@H](C)C(=O)[C@H](C)[C@H]2NC(=O)O[C@@]21C (stereo partly drawn) [Example 259, Compound of Formula (IX): L is CO, T is NH, R is —CH2-(2,2-dimethyl-1,3-dioxolan-4-yl)] was tested. Which MIC (organism code AA) did it give?
The MIC was 6.2 µg/mL.

What about the MIC (organism code BB) of the same compound?
The MIC was 6.2 µg/mL.

What about the MIC (organism code CC) of the same compound?
The MIC was over 100 µg/mL.

And the MIC (organism code DD)?
Its MIC is 12.5 µg/mL.

What about the MIC (organism code EE) of the same compound?
The MIC was 6.2 µg/mL.

What about the MIC (organism code FF) of the same compound?
Its MIC is 6.2 µg/mL.

What about the MIC (organism code GG) of the same compound?
Its MIC is over 100 µg/mL.

What about the MIC (organism code HH) of the same compound?
The MIC was 6.2 µg/mL.

What about the MIC (organism code II) of the same compound?
Its MIC is 0.78 µg/mL.

And the MIC (organism code JJ)?
Its MIC is 0.39 µg/mL.

What about the MIC (organism code KK) of the same compound?
The MIC was 0.78 µg/mL.

And the MIC (organism code LL)?
The MIC was 0.39 µg/mL.

What about the MIC (organism code MM) of the same compound?
The MIC was over 100 µg/mL.

What about the MIC (organism code NN) of the same compound?
Its MIC is 1.56 µg/mL.

And the MIC (organism code OO)?
Its MIC is 0.78 µg/mL.

And the MIC (organism code PP)?
The MIC was 1.56 µg/mL.

And the MIC (organism code QQ)?
The MIC was over 100 µg/mL.

And the MIC (organism code RR)?
Its MIC is 1.56 µg/mL.

What about the MIC (organism code SS) of the same compound?
Its MIC is over 100 µg/mL.

And the MIC (organism code TT)?
Its MIC is over 100 µg/mL.

What about the MIC (organism code UU) of the same compound?
Its MIC is 12.5 µg/mL.

And the MIC (organism code VV)?
Its MIC is 3.1 µg/mL.

And the MIC (organism code WW)?
Its MIC is 128 µg/mL.

What about the MIC (organism code XX) of the same compound?
The MIC was 1 µg/mL.

And the MIC (organism code YY)?
Its MIC is 1 µg/mL.

What about the MIC (organism code ZZ) of the same compound?
Its MIC is over 128 µg/mL.

And the MIC (organism code ZZA)?
The MIC was 4 µg/mL.

For CC[C@H]1OC(=O)[C@H](C)C(=O)[C@H](C)[C@@H](O[C@@H]2O[C@H](C)C[C@H](N(C)C)[C@H]2O)[C@@](C)(OCC(=O)c2ccc(F)cc2)C[C@@H](C)C(=O)[C@H](C)[C@H]2NC(=O)O[C@@]21C [Example 240, Compound of Formula (IX): L is CO, T is NH, R is —CH2C(O)-(4-F-phenyl)], which MIC (organism code AA) is on record?
The MIC was 3.1 µg/mL.

And the MIC (organism code BB)?
The MIC was 3.1 µg/mL.

And the MIC (organism code CC)?
Its MIC is over 100 µg/mL.

What about the MIC (organism code DD) of the same compound?
The MIC was 6.2 µg/mL.

What about the MIC (organism code EE) of the same compound?
Its MIC is 3.1 µg/mL.

What about the MIC (organism code FF) of the same compound?
Its MIC is 3.1 µg/mL.

And the MIC (organism code GG)?
The MIC was over 100 µg/mL.

And the MIC (organism code HH)?
The MIC was 3.1 µg/mL.

And the MIC (organism code II)?
Its MIC is 0.78 µg/mL.

What about the MIC (organism code JJ) of the same compound?
The MIC was 0.39 µg/mL.

And the MIC (organism code KK)?
Its MIC is 0.39 µg/mL.

And the MIC (organism code LL)?
Its MIC is 0.39 µg/mL.

What about the MIC (organism code MM) of the same compound?
Its MIC is over 100 µg/mL.

And the MIC (organism code NN)?
The MIC was 0.78 µg/mL.

And the MIC (organism code OO)?
The MIC was 0.39 µg/mL.

What about the MIC (organism code PP) of the same compound?
Its MIC is 1.56 µg/mL.

What about the MIC (organism code QQ) of the same compound?
Its MIC is over 100 µg/mL.

And the MIC (organism code RR)?
The MIC was 3.1 µg/mL.

And the MIC (organism code SS)?
The MIC was over 100 µg/mL.

And the MIC (organism code TT)?
The MIC was over 100 µg/mL.

And the MIC (organism code UU)?
The MIC was 6.2 µg/mL.

What about the MIC (organism code VV) of the same compound?
Its MIC is 1.56 µg/mL.

What about the MIC (organism code WW) of the same compound?
The MIC was 32 µg/mL.

What about the MIC (organism code XX) of the same compound?
The MIC was 0.25 µg/mL.

And the MIC (organism code YY)?
Its MIC is 0.25 µg/mL.

What about the MIC (organism code ZZ) of the same compound?
The MIC was over 128 µg/mL.

What about the MIC (organism code ZZA) of the same compound?
The MIC was 1 µg/mL.

— patent USRE39591E1, “6-O-substituted ketolides having antibacterial activity” (Abbott Laboratories, priority 1996, dated 2007)
